Reference: publication PMC10050881

Assays:
[1] = target: T1, PEDV Mpro (main protease, 3CL protease) (Porcine epidemic diarrhea virus CV777, UniProt P0C6Y4); assay: FRET inhibition assay; assay type: biochemical
T1 construct: gene rep; mature nsp5 main protease cut from replicase polyprotein 1a/1ab; recombinant N-terminal GST fusion, GST tag removed with PreScission protease; expression as in Li et al., 2020; PDB 4XFQ only for docking
T1 sequence (P0C6Y4 2998-3299 limits assumed): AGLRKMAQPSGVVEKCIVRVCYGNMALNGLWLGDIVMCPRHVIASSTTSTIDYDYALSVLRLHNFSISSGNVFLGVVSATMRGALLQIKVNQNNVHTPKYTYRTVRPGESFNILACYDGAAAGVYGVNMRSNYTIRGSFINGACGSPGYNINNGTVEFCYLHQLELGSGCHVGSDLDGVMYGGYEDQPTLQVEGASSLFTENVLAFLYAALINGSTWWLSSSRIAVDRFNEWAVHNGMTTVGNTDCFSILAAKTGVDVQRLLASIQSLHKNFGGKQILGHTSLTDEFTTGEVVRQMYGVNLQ

[2] = target: T1, PEDV Mpro (main protease, 3CL protease); assay: surface plasmon resonance (OpenSPR), Mpro immobilised; assay type: binding; conditions: read-out: KD (affinity constant)

COc1c(O)cc(O)c2c(=O)cc(-c3ccccc3)oc12 [wogonin]
IC50 [1]: 19.4 µM | Kd [2]: 16 µM
